These results are taken from patent US8178506B2, “Oligomeric compounds and compositions for use in modulation of small non-coding RNAs” (Regulus Therapeutics Inc., priority 2003, dated 2012).

Common to all, as to format: cell-based, human
The subject of data set [1] is preadipocytes / differentiating adipocytes. Nature of the data set: Adipocyte differentiation assay, markers taken together. The note with it: for 5 markers of adipocyte differentiation / five markers of adipocyte differentiation: differentiating adipocytes; for 5 markers of adipocyte differentiation: % of UTC (Table 75). The procedure: Oligomeric compounds of the invention are tested for their effects on preadipocyte differentiation. […] For the other adipocyte differentiation markers assayed, an oligomeric compound targeted to PPAR-γ, also known to inhibit adipocyte differentiation, may be used as a positive control.
Cells are transfected as described herein. […] Untreated control cells receive LIPOFECTIN™ only.
After the cells have reach confluence (approximately three days), they are exposed for an additional three days to differentiation medium (Zen-Bio, Inc., Research Triangle Park, N.C.) containing a PPAR-γ agonist, IBMX, dexamethasone, and insulin. Cells are then fed adipocyte medium (Zen-Bio, Inc.), which is replaced at 2 or 3 day intervals.
For assaying adipocyte differentiation, expression of the four hallmark genes, HSL, aP2, Glut4, and PPARγ, as well as triglyceride (TG) accumulation and leptin secretion were measured in adipocytes transfected with the uniform 2′-MOE phosphorothioate (PS) oligomeric compounds previously described. Cells are lysed on day nine post-transfection, in a guanadinium-containing buffer and total RNA is harvested. Real-time PCR is performed (Applied Biosystems, Prism 7700) on the total RNA using the following primer/probe sets for the adipocyte differentiation hallmark genes: (aP2): forward 5′-GGTGGTGGAATGCGTCATG-3′ (SEQ ID NO: 746), reverse 5′-[…]-3′ (SEQ ID NO: 747), probe 5′-FAM-[…]-TAMRA-3′ (SEQ ID NO: 748); (Glut4): forward 5′-GGCCTCCGCAGGTTCTG-3′ (SEQ ID NO: 749), reverse 5′-[…]-3′ (SEQ ID NO: 750), probe 5′-FAM-[…]-TAMRA-3′ (SEQ ID NO: 751); (HSL): forward 5′-ACCTGCGCACAATGACACA-3′ (SEQ ID NO: 752), reverse 5′-[…]-3′ (SEQ ID NO: 753), probe 5′-FAM-[…]-TAMRA-3′ (SEQ ID NO: 754); (PPAR-γ): forward 5′-[…]-3′ (SEQ ID NO: 755), reverse 5′-[…]-3′ (SEQ ID NO: 756), probe 5′-FAM-[…]-TAMRA-3′ (SEQ ID NO: 757). The amount of total RNA in each sample is determined using a Ribogreen Assay (Molecular Probes, Eugene, Oreg.), and expression levels of the adipocyte differentiation hallmark genes were normalized to total RNA. Leptin protein and triglyceride levels as well as mRNA levels for each of the four adipocyte differentiation hallmark genes are expressed relative to control levels (control=treatment with ISIS-29848 (SEQ ID NO: 737)).
In some embodiments, differentiating adipocytes were treated with uniform 2′-MOE phosphorothioate oligomeric compounds according to the methods described above, and the expression of the four hallmark genes, HSL, aP2, Glut4, and PPARγ, as well as triglyceride (TG) accumulation were measured. […] Undifferentiated adipocytes were also compared as a negative control. […] The effects of TNF-α, also known to inhibit adipocyte differentiation, were also measured.

Another data set concerns HeLa cells. Nature of the data set: Cell cycle assay in HeLa cells. The note with it: HeLa cells.
For another data set, the system named is T47D cells. Nature of the data set: Cell cycle assay in T47D cells. The settings on record: 150 nM, 48 hours, relative to untreated control. The procedure: BJ cells were routinely cultured in MEM high glucose with 2 mM L-glutamine and Earle's BSS adjusted to contain 1.5 g/L sodium bicarbonate and supplemented with 10% fetal bovine serum, 0.1 mM non-essential amino acids and 1.0 mM sodium pyruvate (all media and supplements from Invitrogen Life Technologies, Carlsbad, Calif.). B16-F10 cells were routinely cultured in DMEM high glucose (Invitrogen Life Technologies, Carlsbad, Calif.) supplemented with 10% fetal bovine serum (Invitrogen Life Technologies, Carlsbad, Calif.). T47D cells were cultured in DMEM High glucose media (Invitrogen Life Technologies, Carlsbad, Calif.) supplemented with 10% fetal bovine serum. […] Cells were plated on collagen-coated 24-well plates (Falcon-Primaria #3047, BD Biosciences, Bedford, Mass.) at approximately 50,000 cells per well and allowed to attach to wells overnight.
(§1) In further studies, additional cell lines were treated with oligomeric compounds targeted against miRNAs to assess the effects of each oligomeric compound on cell cycling. BJ, B16, T47D, and HeLa cells were cultured and transfected as described above. […] T47Dp53 cells are T47D cells that have been transfected with and selected for maintenance of a plasmid that expresses a wildtype copy of the p53 gene (for example, pCMV-p53; Clontech, Palo Alto, Calif.), using standard laboratory procedures. BJ cells were treated with 200 nM of each oligomeric compound, and T47D, T47Dp53, HeLa, and B16 cells were treated with 150 nM of each oligomeric compound. The human foreskin fibroblast BJ cell line represents a non-cancer cell line, while HeLa, T47D, T47Dp53 cells and the mouse melanoma cell line B16-F10 represent cancerous cell lines. For comparison, oligomeric compounds ISIS 183891 (SEQ ID NO: 847) and ISIS 285717 ([…]; herein incorporated as SEQ ID NO: 857), both targeting the kinesin-like 1/Eg5 mRNA, involved in cell cycling, were used as positive controls. The random-mer ISIS 29848 was used as a negative control. Additionally, the oligomeric compounds ISIS Number 25690 ([…]; herein incorporated as SEQ ID NO: 858) and ISIS Number 25691 ([…]; herein incorporated as SEQ ID NO: 859), targeted to nucleotides 3051-3070 and 3085-3104, respectively, of the mRNA encoding the Drosha RNase III (GenBank Accession NM_013235.2, incorporated herein as SEQ ID NO: 860) were also tested. ISIS Number 25690 and ISIS Number 25691 are 5-10-52′-MOE gapmer compounds, 20 nucleotides in length, with phosphorothioate internucleoside linkages throughout the oligomeric compound. All cytidine residues are 5-methylcytidines. Transfections were performed using the methods described herein. Cells were prepared for flow cytometry 48-hours after oligonucleotide treatment. Results of these studies are shown in Table 35, where data are expressed as percentage of cells in each phase relative to the untreated control cells in that phase.

The next data set concerns T47Dp53 cells. In words: Cell cycle assay in T47Dp53 cells. The settings on record: 150 nM, 48 hours, relative to untreated control. Here is the method: as §1
[2] abbreviates: 150 nM, 48 hours, relative to untreated control.
Where [3] appears, read: 150 nM oligomeric compound, 24 hours, relative to untreated control (UTC = 100).
The mark [4] stands for this setting: 150 nM oligomeric compound, 48 hours after treatment, relative to untreated control (UTC=100).

In the oligonucleotide strings, read from the 5' end, every base follows the letter of its sugar. An asterisk marks phosphorothioate; unmarked linkages are phosphodiester. Other units and linkages are bracketed, terminal groups are in braces. A string of capitals states the bases alone. e = 2'-O-(2-methoxyethyl) (MOE); [5mC] = 5-methylcytosine; d = 2'-deoxy (DNA)

On to “ISIS 348127: SEQ ID NO: 1869, targeted to mir-27b (antisense GCAGAACUUAGCCACUGUGAA; all 2'-MOE, all phosphorothioate, methylation of C and T or U not given here)”, for which, in data set [1], the “5 markers of adipocyte differentiation” value is reported as “significant increases in all 5 markers of adipocyte differentiation”.
As for “25690 (antisense eA*eT*e[5mC]*e[5mC]*e[5mC]*dT*dT*dT*d[5mC]*dT*dT*d[5mC]*d[5mC]*dG*d[5mC]*eA*eT*eG*eT*eG) [compound 25690]”, in the data set on HeLa cells (setting [2]), the “% cells in cell cycle phase G1” value was 119%, the “% cells in cell cycle phase G2/M” value is 87%, the “% cells in cell cycle phase S” value stood at 89% and the “% cells in cell cycle phase aneuploid” value was 140%. Further, the “% cells in cell cycle phase subG1” value in the data set with HeLa cells (setting [2]) turned out to be 64%. Besides, in the data set on T47D cells, the “% cells in cell cycle phase G1” value is reported as 97%, the “% cells in cell cycle phase G2/M” value is reported as 113%, the “% cells in cell cycle phase S” value amounted to 80% and the “% cells in cell cycle phase aneuploid” value was determined as 140%. For the same substance, the “% cells in cell cycle phase subG1” value in the data set on T47D cells turned out to be 97%. For the same substance, in the data set with T47Dp53 cells, the “% cells in cell cycle phase G1” value was found to be 97%, the “% cells in cell cycle phase G2/M” value is on record as 114%, the “% cells in cell cycle phase S” value stood at 108% and the “% cells in cell cycle phase aneuploid” value came to 144%. In addition, in the data set on T47Dp53 cells, the “% cells in cell cycle phase subG1” value amounted to 193%.
Take “TCCTGGATGATATCTACCTC (chemistry not fully specified) [ISIS 328677, 5-10-5 2′-MOE gapmer PS; targets hypothetical miRNA-120 pri-miRNA]”: in data set [1] (% of UTC (Table 55)), the “five markers of adipocyte differentiation” value is reported as “reduce the expression levels of all five markers of adipocyte differentiation”.
In the case of “CCAAGTGTTAGAGCAAGATCA (anti-miR; chemistry not fully specified) [ISIS 328126, uniform 2′-MOE PS; targets hypothetical miRNA-170]”, the “5 markers of adipocyte differentiation” value in data set [1] was “increases in 4 of the 5 markers of adipocyte differentiation”.
Turning to “ISIS 346685: SEQ ID NO: 1884, targeted to mir-27 (Mourelatos) (antisense GGCGGAACUUAGCCACUGUGAA; all 2'-MOE, all phosphorothioate, methylation of C and T or U not given here)”, the “5 markers of adipocyte differentiation” value in data set [1] is on record as “significant increases in all 5 markers of adipocyte differentiation”.
Take “CCATCTTTACCAGACAGTGTT (anti-miR; chemistry not fully specified) [ISIS 327942, uniform 2′-MOE PS; targets mir-141]”: the “expression levels of markers of adipocyte differentiation (TG, leptin, aP2, HSL, Glut4, PPARγ)” value in data set [1] (preadipocytes, 250 nM, day nine post-transfection, relative to ISIS-29848) is recorded as “significantly reduce the expression levels of 5 of 6 markers of adipocyte differentiation”.
With “ISIS 344615: SEQ ID NO: 1900, targeted to mir-244* (Kosik) (antisense UCAACAAAAUCACUGAUGCUGGA; all 2'-MOE, all phosphorothioate, methylation of C and T or U not given here)”, the “5 markers of adipocyte differentiation” value in data set [1] is “significant increases in all 5 markers of adipocyte differentiation”.
In the case of “ATGACTACAAGTTTATGGCCA (chemistry not given here) [ISIS 328121, uniform 2′-MOE PS; targets hypothetical miRNA-161]”, in data set [1], the “5 markers of adipocyte differentiation” value is reported as “significant increases in all 5 markers of adipocyte differentiation”. The “five markers of adipocyte differentiation” value in data set [1] (control ISIS 342673 (Tables 17, 18)) is given as “increase in all five markers of adipocyte differentiation”.
In the case of “ISIS 348117: SEQ ID NO: 1860, targeted to mir-321-1 (antisense GAACCCACAAUCCCUGGCUUA; all 2'-MOE, all phosphorothioate, methylation of C and T or U not given here)”, the “5 markers of adipocyte differentiation” value in data set [1] is reported as “significantly reduce the expression levels of 3 of the 5 markers of adipocyte differentiation”.
“GTCTGTCAATTCATAGGTCAT (chemistry not given here) [ISIS 327960, uniform 2′-MOE PS; targets mir-215]”: the “five markers of adipocyte differentiation” value in data set [1] (% of UTC (Table 55)) is “reduce the expression levels of all five markers of adipocyte differentiation”.
Turning to “ISIS 346687: SEQ ID NO: 1802, targeted to mir-129-1 (antisense AGCAAGCCCAGACCGCAAAAAG; all 2'-MOE, all phosphorothioate, methylation of C not given here)”, the “5 markers of adipocyte differentiation” value in data set [1] is “significantly reduce the expression levels of 3 of the 5 markers of adipocyte differentiation”.
For the substance “ISIS 344340: SEQ ID NO: 1921, targeted to mir-140 (antisense UGUCCGUGGUUCUACCCUGUGGUA; all 2'-MOE, all phosphorothioate, methylation of C and T or U not given here)”, the “5 markers of adipocyte differentiation” value in data set [1] was “significantly reduce the expression levels of 3 of the 5 markers of adipocyte differentiation”.
Regarding “328687 (eG*e[5mC]*eT*eT*e[5mC]*d[5mC]*d[5mC]*dA*dG*d[5mC]*dG*dG*d[5mC]*d[5mC]*dT*eA*eT*eA*eG*eT; antisense) [compound 328687]”, in the data set with HeLa cells (setting [3]), the “% cells aneuploid” value is on record as 149%, the “% cells in cell cycle phase G1” value was found to be 80%, the “% cells in cell cycle phase G2/M” value is given as 131% and the “% cells in cell cycle phase S” value was found to be 98%. Moreover, the “% cells in cell cycle phase subG1” value with HeLa cells (setting [3]) is given as 231%. In the data set with HeLa cells (setting [4]), the “% cells in cell cycle phase: G1” value was 55%, the “% cells in cell cycle phase: G2/M” value was 131%, the “% cells in cell cycle phase: S” value came out at 174% and the “% cells in cell cycle phase: aneuploid” value was found to be 171%. The “% cells in cell cycle phase: subG1” value in the data set with HeLa cells (setting [4]) is on record as 1119%. Moreover, in the data set with T47D cells, the “% cells in cell cycle phase G1” value came to 101%, the “% cells in cell cycle phase G2/M” value was determined as 115%, the “% cells in cell cycle phase S” value is given as 92% and the “% cells in cell cycle phase aneuploid” value was 169%. In the data set on T47D cells, the “% cells in cell cycle phase subG1” value came to 142%.
